The record followed here is patent US8592448B2 (OSI Pharmaceuticals, LLC, priority 2008, dated 2013).

Like-named read-outs stand apart in the source and are kept apart here.

The subject of one assay is MKN45 cells. As to the kind of experiment: MKN45 cell proliferation assay (CellTiter-Glo). It counts as cell-based. The following applies: MKN45 cell line, 3 days incubation, at least duplicate experiments, read-out: Prolif. IC50. On the procedure: The effect of inhibitors on the proliferation of MKN45 cells was determined using the following protocol. MKN45 cells were plated in Corning 3917 96-well white tissue culture treated plates in growth medium (RPMI, 10% FCS) at a density of 5000 cells/well in a total volume of 135 μL and incubated at 37° C., 5% CO2, 95% humidity overnight. The following day, one-tenth volume of a 10× concentration of compounds was added to the wells in an 8-point dilution series. The dilution series was composed of an initial 1:5 dilution of a 10 mM stock of compound in DMSO, followed by serial 1:4 dilutions in DMSO, then a 1:20 dilution in growth medium prior to the 1:10 dilution into the cell plate. Final DMSO concentration on the cells was 0.1%, there were control wells treated with both 0.1% DMSO and no DMSO. The typical dilution range is 10 μM to 0.6 nM. Once the compound was added to the cells, plates were incubated for 3 days at 37° C., 5% CO2 at 95% humidity. On the third day, after allowing all cells and reagents to come to room temperature, 25 μL of CellTiter-Glo reagent (Promega # G7573) was added to the wells. Plates were shaken on a platform for 10 minutes prior to reading luminescence for 0.1 seconds. The signal of the control wells was taken as 100% growth and growth inhibition was expressed as percent of control. IC50 values were determined from the percent of control data using a standard four-parameter model.
The IC50 values of exemplary compounds of the present invention determined in a cell proliferation assay using the MKN45 cell line according to the procedures described herein in at least duplicate experiments are abbreviated as follows and are shown in Table 2: A, IC50≦0.1 μM; B, 0.1 μM<IC50≦1 μM; C, 1 μM<IC50≦10 μM; D, IC50>10 μM; ND, not determined. The Example # of Table 2 corresponds to the compound example number as illustrated in the Examples section.
In general terms: ATP-based viability assays read luminescence as a measure of living cells.

The next assay deals with T1, phosphorylated c-MET (Homo sapiens, UniProt P08581).
T1 construct: endogenous in cells; host or cells: MKN45
T1 sequence (P08581 25-1390): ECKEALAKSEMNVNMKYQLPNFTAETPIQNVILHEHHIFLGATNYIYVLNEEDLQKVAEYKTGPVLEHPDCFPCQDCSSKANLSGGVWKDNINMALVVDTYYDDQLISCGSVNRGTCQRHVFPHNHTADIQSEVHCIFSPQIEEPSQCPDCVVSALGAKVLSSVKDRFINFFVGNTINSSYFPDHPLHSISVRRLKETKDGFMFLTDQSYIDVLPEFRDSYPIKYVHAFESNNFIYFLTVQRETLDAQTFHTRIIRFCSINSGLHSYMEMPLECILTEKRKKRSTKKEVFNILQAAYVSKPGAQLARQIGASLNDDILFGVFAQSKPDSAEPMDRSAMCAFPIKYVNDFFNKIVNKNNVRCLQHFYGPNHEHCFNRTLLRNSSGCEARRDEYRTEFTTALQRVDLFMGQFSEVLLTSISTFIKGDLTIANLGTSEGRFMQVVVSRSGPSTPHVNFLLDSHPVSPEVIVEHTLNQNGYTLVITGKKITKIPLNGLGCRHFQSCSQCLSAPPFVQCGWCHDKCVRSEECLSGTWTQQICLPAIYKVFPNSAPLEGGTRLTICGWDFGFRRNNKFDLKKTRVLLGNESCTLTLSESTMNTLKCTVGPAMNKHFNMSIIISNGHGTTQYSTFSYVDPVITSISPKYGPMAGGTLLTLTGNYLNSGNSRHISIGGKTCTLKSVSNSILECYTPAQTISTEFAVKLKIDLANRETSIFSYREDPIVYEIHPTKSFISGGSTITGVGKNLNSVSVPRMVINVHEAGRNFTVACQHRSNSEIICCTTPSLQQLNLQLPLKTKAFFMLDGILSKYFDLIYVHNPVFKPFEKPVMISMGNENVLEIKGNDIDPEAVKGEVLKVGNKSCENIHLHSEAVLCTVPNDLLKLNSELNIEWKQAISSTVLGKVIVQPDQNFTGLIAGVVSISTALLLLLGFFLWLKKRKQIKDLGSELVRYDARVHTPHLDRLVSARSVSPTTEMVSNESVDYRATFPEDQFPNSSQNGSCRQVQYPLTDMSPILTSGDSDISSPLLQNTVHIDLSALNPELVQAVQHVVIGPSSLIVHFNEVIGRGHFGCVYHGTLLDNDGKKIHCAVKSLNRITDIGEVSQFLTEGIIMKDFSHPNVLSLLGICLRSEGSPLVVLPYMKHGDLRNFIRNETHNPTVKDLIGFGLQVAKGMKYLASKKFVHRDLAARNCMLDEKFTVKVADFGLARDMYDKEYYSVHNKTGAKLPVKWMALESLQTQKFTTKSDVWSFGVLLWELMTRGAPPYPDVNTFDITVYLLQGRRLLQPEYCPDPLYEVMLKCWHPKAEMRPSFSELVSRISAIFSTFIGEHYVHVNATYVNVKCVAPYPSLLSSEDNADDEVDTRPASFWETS
As to the kind of experiment: c-MET cell mechanistic assay (phosphorylated c-MET in MKN45 cells). The following applies: MKN45 cell line, four hours incubation, phosphorylated c-MET levels, at least duplicate experiments; read-out: Met mech IC50. Format: cell-based. On the procedure:
The cellular activity of the compounds of the present invention may be determined by the following procedure. MKN45 cells were plated in Falcon 3072 96-well plates in growth media (RPMI, 10% FBS, 1% L-glutamine) at a density of 5000 cells/well and incubated at 37° C., 5% CO2 overnight. The following day, one-tenth volume of a 10× concentration of compounds was added to the wells in a 6-point dilution series. The dilutions series was composed of an initial 1:5 dilution in DMSO, followed by a 1:10 dilution in growth media, for a final DMSO concentration on cells of 0.5%. Control wells were treated with 0.5% DMSO. The typical range of dilution was 10 μM to 3 nM. Once compound was added to the cells, plates were incubated for four hours at 37° C., 5% CO2. Plates were then washed in PBS, and lysed in triton-based lysis buffer. Lysates were transferred to a precoated capture plate made by Biosource (Cat # KH00281). The phosphorylated c-MET levels were measured by incubating with a rabbit polyclonal antibody against phosphorylated c-MET ([pYpYpY1230/1234/1235]) followed by an anti-rabbit antibody conjugated to HRP. Signal was measured on a Wallac Victor plate reader at 450 nm. The DMSO signal of the control wells was defined as 100% and the percent of inhibition of phosphorylated c-Met was expressed as percent of control. IC50 values were determined from the percent of control data using a standard four-parameter model.
The IC50 values of exemplary compounds of the present invention determined in a c-MET cell mechanistic assay using the MKN45 cell line according to the procedures described herein in at least duplicate experiments are abbreviated as follows and are shown in Table 3: A, IC50≦0.1 μM; B, 0.1 μM<IC50≦1 μM; C, 1 μM<IC50≦10 μM; D, IC50>10 μM; ND, not determined. The Example # of Table 3 corresponds to the compound example number as illustrated in the Examples section.

Take “2-(4-{3-[(S)-1-(2,6-Dichloro-3-fluorophenyl)ethyl]-1H-pyrrolo[2,3-b]-pyridin-5-yl}-pyrazol-1-yl)-acetamide [Example 75]”: the IC50 is 100 to 1000 nM in the assay on MKN45 cells and at most 100 nM at phosphorylated c-MET.
`CC(c1c(Cl)ccc(F)c1Cl)c1c[nH]c2ncc(-c3ccc(C(=O)N(C)C)cc3)cc12` (stereo not drawn) [Example 3, 4-{3-[1-(2,6-Dichloro-3-fluorophenyl)ethyl]-1H-pyrrolo[2,3-b]pyridin-5-yl}-N,N-dimethylbenzamide]: the IC50 fell in the range of 100 to 1000 nM in the assay on MKN45 cells (Homo sapiens, MKN-45, 72 h) and 100 to 1000 nM on phosphorylated c-MET.
On to `CC(c1c(Cl)ccc(F)c1Cl)c1c[nH]c2ncc(-c3ccc(C(=O)N4CCCC4)cc3)cc12` (stereo not drawn) [Example 4, (4-{3-[1-(2,6-Dichloro-3-fluorophenyl)ethyl]-1H-pyrrolo[2,3-b]pyridin-5-yl}phenyl)pyrrolidin-1-ylmethanone], for which the IC50 with MKN45 cells (Homo sapiens, MKN-45, 72 h) fell in the range of 100 to 1000 nM; at phosphorylated c-MET, 100 to 1000 nM.
For the compound `CNC(=O)c1ccc(-c2cnc3[nH]cc(C(C)c4c(Cl)ccc(F)c4Cl)c3c2)cc1` (stereo not drawn) [Example 5, 4-{3-[1-(2,6-Dichloro-3-fluorophenyl)ethyl]-1H-pyrrolo[2,3-b]pyridin-5-yl}-N-methylbenzamide], the IC50 with MKN45 cells (Homo sapiens, MKN-45, 72 h) lay within 100 to 1000 nM; on phosphorylated c-MET it was 100 to 1000 nM.
Consider `COCCNC(=O)c1ccc(-c2cnc3[nH]cc(C(C)c4c(Cl)ccc(F)c4Cl)c3c2)cc1` (stereo not drawn) [Example 6, 4-{3-[1-(2,6-Dichloro-3-fluorophenyl)ethyl]-1H-pyrrolo[2,3-b]pyridin-5-yl}-N-(2-methoxyethyl)benzamide], for which the IC50 in the assay on MKN45 cells (Homo sapiens, MKN-45, 72 h) lay in the range of 1000 to 10000 nM; on phosphorylated c-MET it was 100 to 1000 nM.
For `CC(c1c(Cl)ccc(F)c1Cl)c1c[nH]c2ncc(-c3ccc(C(=O)NCCN4CCOCC4)cc3)cc12` (stereo not drawn) [Example 7, 4-{3-[1-(2,6-Dichloro-3-fluorophenyl)ethyl]-1H-pyrrolo[2,3-b]pyridin-5-yl}-N-(2-morpholin-4-ylethyl)benzamide], the IC50 with MKN45 cells (Homo sapiens, MKN-45, 72 h) lay within 100 to 1000 nM; on phosphorylated c-MET it was 100 to 1000 nM.
On to `CC(c1c(Cl)ccc(F)c1Cl)c1c[nH]c2ncc(-c3ccc(C(=O)N4CCOCC4)cc3)cc12` (stereo not drawn) [Example 13, (4-{3-[1-(2,6-Dichloro-3-fluorophenyl)ethyl]-1H-pyrrolo[2,3-b]pyridin-5-yl}phenyl)morpholin-4-ylmethanone], for which the IC50 fell in the range of 100 to 1000 nM in the assay with MKN45 cells (Homo sapiens, MKN-45, 72 h) and 100 to 1000 nM at phosphorylated c-MET.
In the case of `CC(c1c(Cl)ccc(F)c1Cl)c1c[nH]c2ncc(-c3ccc(C(=O)N4CCN(C)CC4)cc3)cc12` (stereo not drawn) [Example 15, (4-{3-[1-(2,6-Dichloro-3-fluorophenyl)ethyl]-1H-pyrrolo[2,3-b]pyridin-5-yl}phenyl)-(4-methylpiperazin-1-yl)methanone], the IC50 was 100 to 1000 nM with MKN45 cells (Homo sapiens, MKN-45, 72 h) and at most 100 nM on phosphorylated c-MET.
The like results for `CC(c1c(Cl)ccc(F)c1Cl)c1c[nH]c2ncc(-c3ccc(N)cc3)cc12` (stereo not drawn) [Example 18, 4-{3-[1-(2,6-Dichloro-3-fluorophenyl)ethyl]-1H-pyrrolo[2,3-b]pyridin-5-yl}phenylamine] were, in that order, 100 to 1000 nM and 100 to 1000 nM.
The like results for `CC(c1c(Cl)ccc(F)c1Cl)c1c[nH]c2ncc(-c3ccccc3)cc12` (stereo not drawn) [Example 19, 3-[1-(2,6-Dichloro-3-fluorophenyl)ethyl]-5-phenyl-1H-pyrrolo[2,3-b]-pyridine] were, in that order, above 10000 nM and 1000 to 10000 nM.
Taken in the same sequence, the figures for `CC(c1c(Cl)ccc(F)c1Cl)c1c[nH]c2ncc(-c3ccc(C(=O)NCCN(C)C)cc3)cc12` (stereo not drawn) [Example 20, 4-{3-[1-(2,6-Dichloro-3-fluorophenyl)ethyl]-1H-pyrrolo[2,3-b]pyridin-5-yl}-N-(2-dimethylaminoethyl)benzamide] were 100 to 1000 nM and 100 to 1000 nM.
As for `CC(c1c(Cl)ccc(F)c1Cl)c1c[nH]c2ncc(-c3ccc(S(=O)(=O)N(C)C)cc3)cc12` (stereo not drawn) [Example 22, 4-{3-[1-(2,6-Dichloro-3-fluorophenyl)ethyl]-1H-pyrrolo[2,3-b]pyridin-5-yl}-N,N-dimethylbenzenesulfonamide], the IC50 in the assay on MKN45 cells (Homo sapiens, MKN-45, 72 h) was 1000 to 10000 nM; at phosphorylated c-MET, 1000 to 10000 nM.
With `CNS(=O)(=O)c1ccc(-c2cnc3[nH]cc(C(C)c4c(Cl)ccc(F)c4Cl)c3c2)cc1` (stereo not drawn) [Example 23, 4-{3-[1-(2,6-Dichloro-3-fluorophenyl)ethyl]-1H-pyrrolo[2,3-b]pyridin-5-yl}-N-methylbenzenesulfonamide], the IC50 lay within 1000 to 10000 nM in the assay on MKN45 cells (Homo sapiens, MKN-45, 72 h) and 100 to 1000 nM on phosphorylated c-MET.
For `CC(c1c(Cl)ccc(F)c1Cl)c1c[nH]c2ncc(-c3ccc(C(=O)NCCO)cc3)cc12` (stereo not drawn) [Example 24, 4-{3-[1-(2,6-Dichloro-3-fluorophenyl)ethyl]-1H-pyrrolo[2,3-b]pyridin-5-yl}-N-(2-hydroxyethyl)benzamide], the IC50 with MKN45 cells (Homo sapiens, MKN-45, 72 h) was in the range of 100 to 1000 nM; at phosphorylated c-MET it was 100 to 1000 nM.
Take `CC(c1c(Cl)ccc(F)c1Cl)c1c[nH]c2ncc(-c3cn[nH]c3)cc12` (stereo not drawn) [Example 26, 3-[1-(2,6-Dichloro-3-fluorophenyl)-ethyl]-5-(1H-pyrazol-4-yl)-1H-pyrrolo[2,3-b]pyridine]: the IC50 lay within 100 to 1000 nM in the assay on MKN45 cells (Homo sapiens, MKN-45, 72 h) and 100 to 1000 nM on phosphorylated c-MET.
In the case of `CC(c1c(Cl)ccc(F)c1Cl)c1c[nH]c2ncc(-c3cnn(C)c3)cc12` (stereo not drawn) [Example 27, 3-[1-(2,6-Dichloro-3-fluorophenyl)-ethyl]-5-(1-methyl-1H-pyrazol-4-yl)-1H-pyrrolo[2,3-b]pyridine], the IC50 in the assay on MKN45 cells (Homo sapiens, MKN-45, 72 h) was 100 to 1000 nM; on phosphorylated c-MET it was at most 100 nM.
On to `CC(c1c(Cl)ccc(F)c1Cl)c1c[nH]c2ncc(-c3cnn(C4CCN(C(=O)N(C)C)CC4)c3)cc12` (stereo not drawn) [Example 28, 4-(4-{3-[1-(2,6-Dichloro-3-fluorophenyl)ethyl]-1H-pyrrolo[2,3-b]pyridin-5-yl}-pyrazol-1-yl)-piperidine-1-carboxylic acid dimethylamide], for which the IC50 was at most 100 nM with MKN45 cells (Homo sapiens, MKN-45, 72 h) and at most 100 nM on phosphorylated c-MET.
With `CC(c1c(Cl)ccc(F)c1Cl)c1c[nH]c2ncc(-c3cnn(C4CCN(CC(F)(F)F)CC4)c3)cc12` (stereo not drawn) [Example 29, 3-[1-(2,6-Dichloro-3-fluorophenyl)ethyl]-5-{1-[1-(2,2,2-trifluoroethyl)-piperidin-4-yl]-1H-pyrazol-4-yl}-1H-pyrrolo[2,3-b]pyridine], the IC50 in the assay on MKN45 cells (Homo sapiens, MKN-45, 72 h) lay in the range of 100 to 1000 nM; on phosphorylated c-MET it was 100 to 1000 nM.
Take `CC(c1c(Cl)ccc(F)c1Cl)c1c[nH]c2ncc(-c3cnn(C(C)C)c3)cc12` (stereo not drawn) [Example 30, 3-[1-(2,6-Dichloro-3-fluorophenyl)ethyl]-5-(1-isopropyl-1H-pyrazol-4-yl)-1H-pyrrolo[2,3-b]pyridine]: the IC50 in the assay with MKN45 cells (Homo sapiens, MKN-45, 72 h) is 100 to 1000 nM; at phosphorylated c-MET it was at most 100 nM.
`CC(c1c(Cl)ccc(F)c1Cl)c1c[nH]c2ncc(-c3cnn(CCN4CCOCC4)c3)cc12` (stereo not drawn) [Example 31, 3-[1-(2,6-Dichloro-3-fluorophenyl)ethyl]-5-[1-(2-morpholin-4-ylethyl)-1H-pyrazol-4-yl]-1H-pyrrolo[2,3-b]pyridine]: the IC50 was at most 100 nM with MKN45 cells (Homo sapiens, MKN-45, 72 h) and at most 100 nM on phosphorylated c-MET.
Turning to `CC(c1c(Cl)ccc(F)c1Cl)c1c[nH]c2ncc(C3=CCNCC3)cc12` (stereo not drawn) [Example 32, 3-[1-(2,6-Dichloro-3-fluorophenyl)-ethyl]-5-(1,2,3,6-tetrahydropyridin-4-yl)-1H-pyrrolo[2,3-b]pyridine], the IC50 was 100 to 1000 nM in the assay on MKN45 cells (Homo sapiens, MKN-45, 72 h) and 100 to 1000 nM at phosphorylated c-MET.

In general, IC50 refers to the concentration at which inhibition is half-maximal.
